US20240342292A1, “Compounds for the Degradation of EGFR Kinase” (BeiGene Switzerland GmbH, priority 2021, published 2024)

What was measured:
L858R/T790M/C797S EGFR = target: T1, L858R/T790M/C797S EGFR (Homo sapiens, UniProt P00533, C797S/L858R/T790M); test: EGFR degradation HTRF assay in H1975-clone #25 (LTC) cells; assay type: cell-based; conditions: 16h treatment; for DC50: H1975 # 25-LTC (L858R/T790M/C797S), HTRF; for Dmax: NCI-H1975, H1975 # 25-LTC (L858R/T790M/C797S), maximum percentage of degradation
T1 construct: expressed in transfected cells; host or cells: H1975 clone #25 (lentiviral over-expression, endogenous EGFR knocked out by sgRNA)
Excerpt: (§1) H1975-clone #28(Del19/T790M/C797S, or abbr: DTC), H1975-clone #23(Del19/C797S, or abbr: DC), H1975-clone #25(L858R/T790M/C797S, or abbr: LTC) and H1975-clone #8 (L858R/C797S, or abbr: LC). EGFR-Del19:T790M/C797S, EGFR-Del19/C797S, EGFR-L858R/T790M/C797S and EGFR-L858R/C797S were stably expressed in H1975 cell lines by lentivirus-mediated over-expression, respectively. The EGFR over-expressed cells then underwent knockout, in which the EGFR targeting sgRNA was designed to only target the endogenous EGFR copies and preserve the exogenous EGFR copies. Followed by the knockout, the edited H1975 cells were seeded in 96 well plates at the concentration of […], cultured for about 2 weeks to allow single clones formation. The formed clones were screened by DNA sequencing and whole exon sequencing analysis for the desired edition. H1975-clone #28, H1975-clone #23, H1975-clone #25 and H1975-clone #8 were finally confirmed as homozygous Del19/T790M/C797S EGFR, Dell9/C797S EGFR, L858R/T790M/C797S EGFR and L858R/C797S EGFR clones, respectively.
(§2) H1975-#25, H1975-#28, H1975-#23 and H1975-#8 cells are treated with compounds diluted in 0.2% DMSO cell culture medium on day 2, incubate for 16h, 37° C., 5% CO2. the final concentration of compounds in all assay is start with 10 uM, 5-fold dilution, total 8 doses were included.
(§3) After 16h treatment, add HTRF lysis buffer to each well; seal the plate and incubate 1 hour at room temperature on a plate shaker; Once the cells are lysed, 16 μL of cell lysate are transferred to a PE 384-well HTRF detection plate; 4 μL of pre-mixed HTRF antibodies are added to each well; Cover the plate with a plate sealer, spin 1000 rpm for 1 min, Incubate overnight at room temperature; Read on BMG PheraStar with HTRF protocol (337 nm-665 nm-620 nm).
(§4) The IC50 (DC50) value of a compound can be obtained by fitting the following equation
(§5) Y=Bottom+(TOP−Bottom)/(1+((IC50/X)^hillslope))
(§6) Wherein, X and Y are known values, and IC50, Hillslope, Top and Bottom are the parameters obtained by fitting with software. Y is the inhibition percentage (calculated from the equation), X is the concentration of the compound: IC50 is the concentration of the compound when the 50% inhibition is reached. The smaller the IC50 value is, the stronger the inhibitory ability of the compound is. Vice versa, the higher the IC50 value is, the weaker the ability the inhibitory ability of the compound is: Hillslope represents the slope of the fitted curve, generally around 1*; Bottom represents the minimum value of the curve obtained by data fitting, which is generally 0%±20%; Top represents the maximum value of the curve obtained by data fitting, which is generally 100%±20%. The experimental data were fitted by calculating and analyzing with Dotmatics data analysis software.

Del19/T790M/C797S EGFR = test: EGFR degradation HTRF assay in H1975-clone #28 (DTC) cells; assay type: cell-based; conditions: H1975 # 28 DTC (Del19/T790M/C797S), 16h treatment; for DC50: HTRF; for Dmax (%): maximum percentage of degradation
Excerpt: as §1, §2, §3, §4, §5, §6

T1 sequence (P00533 25-1210 T790M/C797S/L858R): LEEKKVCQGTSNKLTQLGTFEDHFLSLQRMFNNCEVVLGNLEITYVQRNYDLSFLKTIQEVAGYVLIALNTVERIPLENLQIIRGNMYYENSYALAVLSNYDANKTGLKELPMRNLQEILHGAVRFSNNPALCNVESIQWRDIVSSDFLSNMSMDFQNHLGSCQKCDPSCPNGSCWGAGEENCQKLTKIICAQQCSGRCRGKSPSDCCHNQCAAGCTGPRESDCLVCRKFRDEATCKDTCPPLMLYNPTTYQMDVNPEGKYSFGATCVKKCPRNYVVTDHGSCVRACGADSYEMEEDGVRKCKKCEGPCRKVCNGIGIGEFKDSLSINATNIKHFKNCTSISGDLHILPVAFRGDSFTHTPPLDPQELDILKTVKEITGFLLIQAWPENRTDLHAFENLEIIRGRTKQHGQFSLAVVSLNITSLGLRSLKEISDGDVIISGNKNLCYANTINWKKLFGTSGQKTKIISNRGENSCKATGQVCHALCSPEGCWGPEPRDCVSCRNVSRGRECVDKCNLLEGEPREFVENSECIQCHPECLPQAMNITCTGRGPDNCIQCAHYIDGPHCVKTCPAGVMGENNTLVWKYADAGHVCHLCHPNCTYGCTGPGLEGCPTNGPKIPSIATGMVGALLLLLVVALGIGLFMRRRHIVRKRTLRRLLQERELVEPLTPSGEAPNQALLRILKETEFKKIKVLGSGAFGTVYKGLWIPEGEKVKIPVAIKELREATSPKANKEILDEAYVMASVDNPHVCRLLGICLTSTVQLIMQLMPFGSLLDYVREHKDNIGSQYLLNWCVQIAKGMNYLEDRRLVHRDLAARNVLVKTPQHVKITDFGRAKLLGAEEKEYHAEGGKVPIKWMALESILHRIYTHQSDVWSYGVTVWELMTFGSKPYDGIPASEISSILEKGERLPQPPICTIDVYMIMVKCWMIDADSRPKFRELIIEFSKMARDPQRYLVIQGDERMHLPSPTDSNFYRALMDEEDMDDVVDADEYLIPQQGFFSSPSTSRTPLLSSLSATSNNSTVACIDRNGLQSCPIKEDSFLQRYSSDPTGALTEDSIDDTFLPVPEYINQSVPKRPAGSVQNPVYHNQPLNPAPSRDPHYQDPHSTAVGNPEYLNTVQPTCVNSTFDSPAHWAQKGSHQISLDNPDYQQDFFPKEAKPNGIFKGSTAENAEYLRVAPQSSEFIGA

Structure (SMILES)	DC50 (L858R/T790M/C797S EGFR) [nM]	Dmax (L858R/T790M/C797S EGFR) [%]	DC50 (Del19/T790M/C797S EGFR) [nM]	Dmax (%) (Del19/T790M/C797S EGFR)
Cc1cc2cc(n1)-c1cnn(C)c1OCCC[C@@H](C)CN1/C(=N/C2=O)Nc2ccc(CN3CC4CCC(C3)N4C(=O)[C@@H]3CCN(c4cc(F)c([C@H]5CCC(=O)NC5=O)c(F)c4)C3)cc21 [Example 83, (3R)-3-(2,6-difluoro-4-((3R)-3-(3-(((R,E)-1^1,2^6,7-trimethyl-3-oxo-5^2,5^3-dihydro-1^1H,5^1H-11-oxa-4-aza-5(2,1)-benzo[d]imidazola-2(2,4)-pyridina-1(4,5)-pyrazolacycloundecaphane-5^6-yl)methyl)-3,8-diazabicyclo[3.2.1]octane-8-carbonyl)pyrrolidin-1-yl)phenyl)piperidine-2,6-dione]	2	82.5	2	73.0
Cc1cc2cc(n1)-c1cnn(C)c1OCCC[C@@H](C)CN1/C(=N/C2=O)Nc2ccc(CN3CC4(CCN(C(=O)[C@@H]5CCN(c6cc(F)c([C@H]7CCC(=O)NC7=O)c(F)c6)C5)CC4)C3)cc21 [Example 84, (R)-3-(2,6-difluoro-4-((R)-3-(2-(((R,E)-1^1,2^6,7-trimethyl-3-oxo-5^2,5^3-dihydro-1^1H,5^1H-11-oxa-4-aza-5(2,1)-benzo[d]imidazola-2(2,4)-pyridina-1(4,5)-pyrazolacycloundecaphane-5^6-yl)methyl)-2,7-diazaspiro[3.5]nonane-7-carbonyl)pyrrolidin-1-yl)phenyl)piperidine-2,6-dione]	2.9	92.7	0.8	86.1
Cc1cc2cc(n1)-c1cnn(C)c1OCCC[C@@H](C)CN1/C(=N/C2=O)Nc2ccc(CN3CCN(C(=O)C4CN(c5ccc(F)c6c5n(C)c(=O)n6C5CCC(=O)NC5=O)C4)CC3)cc21 (stereo partly drawn) [Example 94, 3-(7-fluoro-3-methyl-2-oxo-4-(3-(4-(((R,E)-1^1,2^6,7-trimethyl-3-oxo-5^2,5^3-dihydro-1^1H,5^1H-11-oxa-4-aza-5(2,1)-benzo[d]imidazola-2(2,4)-pyridina-1(4,5)-pyrazolacycloundecaphane-5^6-yl)methyl)piperazine-1-carbonyl)azetidin-1-yl)-2,3-dihydro-1H-benzo[d]imidazol-1-yl)piperidine-2,6-dione]	0.5	90.6	0.7	80.5
Cc1cc2cc(n1)-c1cnn(C)c1OCCC[C@@H](C)CN1/C(=N/C2=O)Nc2ccc(C(=O)N3CCN(C(=O)[C@@H]4CCN(c5cc(F)c([C@H]6CCC(=O)NC6=O)c(F)c5)C4)CC3)cc21 [Example 96, (R)-3-(2,6-difluoro-4-((R)-3-(4-((R,E)-1^1,2^6,7-trimethyl-3-oxo-5^2,5^3-dihydro-1^1H,5^1H-11-oxa-4-aza-5(2,1)-benzo[d]imidazola-2(2,4)-pyridina-1(4,5)-pyrazolacycloundecaphane-5^6-carbonyl)piperazine-1-carbonyl)pyrrolidin-1-yl)phenyl)piperidine-2,6-dione]	0.6	87.8	0.4	84.3
Cc1cc2cc(n1)-c1cnn(C)c1OCCC[C@@H](C)CN1/C(=N/C2=O)Nc2ccc(CN3CCN(C(=O)[C@@H]4CCN(c5cc(F)c([C@H]6CCC(=O)NC6=O)c(F)c5)C4)C[C@H]3C)cc21 [Example 100, (R)-3-(2,6-difluoro-4-((R)-3-((R)-3-methyl-4-(((R,E)-1^1,2^6,7-trimethyl-3-oxo-5^2,5^3-dihydro-1^1H,5^1H -11-oxa-4-aza-5(2,1)-benzo[d]imidazola-2(2,4)-pyridina-(4,5)-pyrazolacycloundecaphane-5^6-yl)methyl)piperazine-1-carbonyl)pyrrolidin-1-yl)phenyl)piperidine-2,6-dione]	1	85.5	0.7	72.8
Cc1cc2cc(n1)-c1cnn(C)c1OCCC[C@@H](C)CN1/C(=N/C2=O)Nc2ccc(CN3CCN(CC4CN(c5cc(F)c([C@H]6CCC(=O)NC6=O)c(F)c5)C4)CC3)c(C)c21 [Example 148, (R)-3-(2,6-difluoro-4-(3-((4-(((R,E)-1^1,2^6,5^7,7-tetramethyl-3-oxo-5^2,5^3-dihydro-1^1H,5^1H-11-oxa-4-aza-5(2,1)-benzo[d]imidazola-2(2,4)-pyridina-1(4,5)-pyrazolacycloundecaphane-5^6-yl)methyl)piperazin-1-yl)methyl)azetidin-1-yl)phenyl)piperidine-2,6-dione]	1.89	78.7	3.09	70.93

Further compounds by falling DC50 (L858R/T790M/C797S EGFR), results first:

DC50 (L858R/T790M/C797S EGFR) [nM]	Dmax (L858R/T790M/C797S EGFR) [%]	DC50 (Del19/T790M/C797S EGFR) [nM]	Structure (SMILES)	Dmax (%) (Del19/T790M/C797S EGFR)
1.83	81.4	2.41	Cc1cc2cc(n1)-c1cnn(C)c1OCCC[C@@H](C)CN1/C(=N/C2=O)Nc2cc(C)c(CN3CCN(CC4CN(c5cc(F)c([C@H]6CCC(=O)NC6=O)c(F)c5)C4)CC3)cc21 [Example 147, (R)-3-(2,6-difluoro-4-(3-((4-(((R,E)-1^1,2^6,5,7-tetramethyl-3-oxo-5^2,5′-dihydro-1^1H,5^1H-11-oxa-4-aza-5(2,1)-benzo[d]imidazola-2(2,4)-pyridina-(4,5)-pyrazolacycloundecaphane-5^6-yl)methyl)piperazin-1-yl)methyl)azetidin-1-yl)phenyl)piperidine-2,6-dione]	69.47
1.7	79.1	1.2	Cc1cc2cc(n1)-c1cnn(C)c1OCCC[C@@H](C)CN1/C(=N/C2=O)Nc2ccc(CN3CCN(C(=O)[C@@H]4CCN(c5cc(F)c(C6CCC(=O)NC6=O)c(F)c5)C4)[C@H](C)C3)cc21 (stereo partly drawn) [Example 106, (R)-3-(2,6-difluoro-4-((R)-3-((R)-2-methyl-4-(((R,E)-1^1,2^6m7-trimethyl-3-oxo-5^2,5^3-dihydro-1^1H,5^1H -11-oxa-4-aza-5(2,1)-benzo[d]imidazola-2(2,4)-pyridina-1(4,5)-pyrazolacycloundecaphane-5^6-yl)methyl)piperazine-1-carbonyl)pyrrolidin-1-yl)phenyl)piperidine-2,6-dione]	74.4
1.4	82.7	0.7	Cc1cc2cc(n1)-c1cnn(C)c1OCCC[C@@H](C)CN1/C(=N/C2=O)Nc2ccc(CN3CCN(C(=O)[C@@H]4CCN(c5cc(F)c([C@H]6CCC(=O)NC6=O)c(F)c5)C4)C[C@@H]3C)cc21 [Example 99]	75.6
0.761	80.8	0.508	Cc1cc2cc(n1)-c1cnn(C)c1OCCCCCN1/C(=N/C2=O)Nc2ccc(CN3CCN(CCc4cc(F)c([C@H]5CCC(=O)NC5=O)c(F)c4)CC3)cc21 [Example 144, (R,E)-3-(4-(2-(4-((1^1,2^6-dimethyl-3-oxo-5^2,5^3-dihydro-1^1H,5^1H-11-oxa-4-aza-5(2,1)-benzo[d]imidazola-2(2,4)-pyridina-1(4,5)-pyrazolacycloundecaphane-5^6-yl)methyl)piperazin-1-yl)ethyl)-2,6-difluorophenyl)piperidine-2,6-dione]	55.85
0.6	88.6	0.7	Cc1cc2cc(n1)-c1cnn(C)c1OCCC[C@@H](C)CN1/C(=N/C2=O)Nc2ccc(CN3C[C@@H]4C[C@H]3CN4C(=O)[C@@H]3CCN(c4cc(F)c([C@H]5CCC(=O)NC5=O)c(F)c4)C3)cc21 [Example 82, (R)-3-(2,6-difluoro-4-((R)-3-((1S,4S)-5-(((R,E)-1^1,2^6,7-trimethyl-3-oxo-5^2,5^3-dihydro-1^1H,5^1H-11-oxa-4-aza-5(2,1)-benzo[d]imidazola-2(2,4)-pyridina-1(4,5)-pyrazolacycloundecaphane-5^6-yl)methyl)-2,5-diazabicyclo[2.2.1]heptane-2-carbonyl)pyrrolidin-1-yl)phenyl)piperidine-2,6-dione]	78.4
